Assay results taken from patent US20240208963A1, “CRYSTALLINE MELANOCORTIN SUBTYPE-2 RECEPTOR (MC2R) ANTAGONIST” (Crinetics Pharmaceuticals, Inc., priority 2022, published 2024).
Read-outs that look alike come from different tables or passages of the source.

Key:
[1] = Solubility of solid state forms in solvents (gravimetric or solvent addition); type: physicochemical; conditions: for solubility: thermodynamic from solid, read-out: Solubility
Experimental: The solubility of certain solid state forms of Compound I was determined in various solvents by either gravimetric solubility or solvent addition.
About 25 mg of compound was weighed into vials. Approximately 5 vol. (0.125 mL) of solvent was added to the solids and the mixtures stirred at the designated temperature (RT or 50° C.). Solutions were noted and an additional 0.125 mL of solvent was added to the slurries. […] If a thicker slurry was noted, 0.25 mL of solvent was added (total volume 0.5 mL). If a thick slurry was again noted, an additional 0.25 mL of solvent was added (total volume 0.75 mL). After stirring for 2 days, the slurries were centrifuged, the supernatant was collected into preweighed vials, and the solvent evaporated at 50° C. (ambient pressure) without stirring. The vials containing the solid residues were dried in a vacuum oven at 50 C, 10^−2-10^−1 Torr, for 3 h before weighing again to determine the mass of solid that was dissolved in the supernatant (i.e. mg solid/mL solvent).
About 20 mg of compound was weighed into vials. Solvent was added in aliquots and stirred at the designated temperature until complete dissolution was observed. This measurement gave a solubility range.

[2] = Stability of crystalline forms at 40° C. and 75% relative humidity (XRPD, HPLC purity); conditions: for Change by XRPD after storage / Degradation by HPLC purity analysis after storage: 40° C., 75% relative humidity
Experimental: Approximately 10 mg of the Crystalline Pattern D of Compound I Maleate, 20 mg of the Crystalline Pattern C of Compound I Maleate, and 10 mg of the Crystalline Pattern E of Compound I Mandelate were weighed into open 4 mL vials that were placed into a 20 mL vial containing a saturated NaCl solution. The vial was sealed and kept at 40° C. for 7 days, creating an atmosphere at 75% relative humidity in the system. After 7 days, the materials were sampled and plated for XRPD analysis.
The stability test was repeated on Patterns C and D of Compound I Maleate for 11 days.

[3] = Form stability at ambient conditions for one week (XRPD); type: physicochemical; conditions: listed as Pattern C, maleate
Excerpt: Some of the samples generated in the antisolvent crystallization experiments were mixtures of Pattern B, Pattern C, and Pattern D. These samples were left at ambient conditions for one week, then analyzed again by XRPD.
Pure Pattern B was generated in the antisolvent crystallization with MIBK and heptane. […] The solids were scraped from the XRPD plate and used for simultaneous TGA/DSC analysis. […] After the solids required for the TGA/DSC analysis were transferred to the pan, the remainder of the solids were re-pressed to the XRPD sample plate and analyzed again.

[4] = Solubility in simulated fluids and water; type: physicochemical; conditions: 37° C.
Experimental: Calibration samples for solubility in simulated fluids were prepared with freebase Compound I.
Solubility in simulated fluids were studied with the mandelate and maleate solids. The simulated fluids FaSSIF (fasted-state intestinal), FaSSGF (fasted-state gastric), and FeSSIF (fed-state intestinal) were removed from the refrigerator, warmed to room temperature, and the pH of each was measured. Between 1.9 and 2.0 mg of each salt was weighed into four vials and 1 mL of each fluid was added, including water. Stir bars (10 mm) were added to the vials and the vials were stirred at 37° C. After 30 mi (mandelate samples) or 1 h (maleate samples), the pH of each solution was measured, then 400 μL of each was removed and syringe filtered with 0.45 µm syringe filters. Approximately 300 μL of the recovered filtrate was diluted 5× with diluent and injected for HPLC analysis. The remainder of the samples in the vials were allowed to stir overnight. After 24 h stirring at 37° C., samples were filtered and diluted as before, and injected for analysis.

[5] = Dynamic vapor sorption (DVS); type: physicochemical
Experimental: DVS was performed using a DVS Intrinsic 1. The sample (20-25 mg) was loaded into a sample pan, suspended from a microbalance and exposed to a humidified stream of nitrogen gas. The sample was held for a minimum of 5 min at each level and only progressed to the next humidity level if there was <0.002% change in weight between measurements (interval: 60 s) or 240 min had elapsed. The following program was used: • 1. Equilibration at 50% RH • 2. 50% to 2%. (50%, 40%, 30%, 20%, 10%, and 2%) • 3. 2% to 95% (2%, 10%, 20%, 30%, 40%, 50%, 60%, 70%, 80%, 90%, and 95%) • 4. 95% to 2% (95%, 80%, 70%, 60%, 50%, 40%, 30%, 20%, 10%, and 2%) • 5. 2% to 50% (2%, 10%, 20%, 30%, 40%, and 50%)

[6] = Salt screening XRPD stages: drying and overnight humidity exposure; conditions: >95% relative humidity overnight
Experimental: XRPD analysis is typically done in three stages: 1) Wet: XRPD of the wet cake is done for all samples whenever solids appropriate for sampling were observed. 2) Dry: Unique solids are then left on XRPD plates and dried under vacuum at 50° C. for at least 3 h. XRPD of unique dry solids are then collected. 3) Humid: Solids are then exposed to >95% relative humidity overnight and XRPD on resulting solids is collected. The humid environment is generated by placing a beaker of saturated potassium sulfate in water in a sealed container. This procedure is not carried out for any amorphous solids obtained. All XRPD patterns are compared to counter ion XRPD patterns and known free molecule patterns.
A qualitive humidity exposure test was performed by exposing approximately 10 mg of the maleate to 80% RH overnight.

## CCOc1ccccc1-c1ccc(N2CCN(C(=O)C3(C(F)(F)F)CCC3)C[C@H]2CC)c(C(=O)N[C@@H]2CN3CCC2CC3)n1.O=C(O)/C=C\C(=O)O [Pattern C Maleate, N-[(3S)-1-azabicyclo[2.2.2]octan-3-yl]-6-(2-ethoxyphenyl)-3-[(2R)-2-ethyl-4-[1-(trifluoromethyl)-cyclobutanecarbonyl]piperazin-1-yl]pyridine-2-carboxamide maleate]
[1]; MeOH, EtOH, acetone, THF, ACN, MEK, DMSO, and water containing systems at 8:2 vol. water:organic
  Solubility (in words): freely soluble
[1]; aqueous with cosolvent or surfactant or cyclodextrin, ACN:water (2:8 vol.), RT
  solubility: > 200 mg/mL
[1]; aqueous with cosolvent or surfactant or cyclodextrin, IPA:water (2:8 vol.), RT
  solubility: > 200 mg/mL
[1]; aqueous with cosolvent or surfactant or cyclodextrin, acetone:water (2:8 vol.), RT
  solubility: > 200 mg/mL
[1]; organic solvent or mixture, ACN, RT
  solubility: > 200 mg/mL
[1]; organic solvent or mixture, DMSO, RT
  solubility: > 200 mg/mL
[1]; organic solvent or mixture, EtOAc, 50° C.
  solubility: 34 mg/mL
[1]; organic solvent or mixture, EtOAc, RT
  solubility: 21 mg/mL
[1]; organic solvent or mixture, EtOH, RT
  solubility: > 200 mg/mL
[1]; organic solvent or mixture, IPA, 50° C.
  solubility: > 500 mg/mL
[1]; organic solvent or mixture, IPA, RT
  solubility: > 200 mg/mL
[1]; organic solvent or mixture, IPA:MtBE (1:1 vol.), 50° C.
  solubility: 36 to 43 mg/mL
[1]; organic solvent or mixture, IPA:heptane (1:1 vol.), 50° C.
  solubility: 16 to 19 mg/mL
[1]; organic solvent or mixture, IPAc, 50° C.
  solubility: 13 mg/mL
[1]; organic solvent or mixture, IPAc, RT
  solubility: 8 mg/mL
[1]; organic solvent or mixture, MEK, RT
  solubility: > 200 mg/mL
[1]; organic solvent or mixture, MIBK, 50° C.
  solubility: 71 mg/mL
[1]; organic solvent or mixture, MIBK, RT
  solubility: 49 mg/mL
[1]; organic solvent or mixture, MeOAc, 50° C.
  solubility: > 500 mg/mL
[1]; organic solvent or mixture, MeOAc, RT
  solubility: > 200 mg/mL
[1]; organic solvent or mixture, MeOAc:IPAc (1:1 vol.), 50° C.
  solubility: 37 to 45 mg/mL
[1]; organic solvent or mixture, MeOH, RT
  solubility: > 200 mg/mL
[1]; organic solvent or mixture, MtBE, 50° C.
  solubility: 4 mg/mL
[1]; organic solvent or mixture, MtBE, RT
  solubility: 4 mg/mL
[1]; organic solvent or mixture, THF, RT
  solubility: > 200 mg/mL
[1]; organic solvent or mixture, acetone, RT
  solubility: > 200 mg/mL
[1]; organic solvent or mixture, acetone:heptane (1:1 vol.), 50° C.
  solubility: 31 to 37 mg/mL
[1]; organic solvent or mixture, chloroform, RT
  solubility: > 200 mg/mL
[1]; organic solvent or mixture, cyclohexane, 50° C.
  solubility: 3 mg/mL
[1]; organic solvent or mixture, cyclohexane, RT
  solubility: < 3 mg/mL
[1]; organic solvent or mixture, n-heptane, 50° C.
  solubility: 3 mg/mL
[1]; organic solvent or mixture, n-heptane, RT
  solubility: < 3 mg/mL
[1]; organic solvent or mixture, toluene, 50° C.
  solubility: 7 mg/mL
[1]; organic solvent or mixture, toluene, RT
  solubility: < 3 mg/mL
[1]; water and 95:5 vol. water:organic systems
  Behaviour in solvent (in words): Gels/gums were generated
[2]; 7 days
  Change by XRPD after storage: No visible change
  Degradation by HPLC purity analysis after storage: no degradation
[2]; 11 days
  Change by XRPD after storage: No visible change
  Degradation by HPLC purity analysis after storage: no degradation
[2]; over a week at 40° C. and 75% RH
  Stability on storage (in words): stable
[3]
  Form conversion by XRPD at ambient conditions: no observable conversion
[4]; FaSSGF (fasted-state simulated gastric fluid), pH 1.49, fassgf or other biorelevant, thermodynamic from solid, FaSSGF, 1 h
  solubility at 1 h: < 2.5 mg/mL
[4]; FaSSGF (fasted-state simulated gastric fluid), pH 1.49, fassgf or other biorelevant, thermodynamic from solid, FaSSGF, 24 h
  solubility at 24 h: > 2.5 mg/mL
[4]; FaSSGF (initial pH 1.49), 1 h
  Sample pH: 4.66
[4]; FaSSGF (initial pH 1.49), 24 h
  Sample pH: 5.08
[4]; FaSSIF (fasted-state simulated intestinal fluid), pH 6.35, thermodynamic from solid, FaSSIF, 24 h
  solubility at 24 h: 1.41 mg/mL
[4]; FaSSIF (fasted-state simulated intestinal fluid), thermodynamic from solid, FaSSIF, 1 h
  solubility at 1 h: 1.24 mg/mL
[4]; FaSSIF (initial pH 6.35), 1 h
  Sample pH: 6.23
[4]; FaSSIF (initial pH 6.35), 24 h
  Sample pH: 6.98
[4]; FaSSIF, after 24 h
  Solids recovered from the solubility experiment (appearance, XRPD): oily and appeared as amorphous
[4]; FeSSIF (fed-state simulated intestinal fluid), pH 4.83, thermodynamic from solid, FeSSIF, 1 h
  solubility at 1 h: > 2.5 mg/mL
[4]; FeSSIF (fed-state simulated intestinal fluid), pH 4.83, thermodynamic from solid, FeSSIF, 24 h
  solubility at 24 h: > 2.5 mg/mL
[4]; FeSSIF (initial pH 4.83), 1 h
  Sample pH: 1.50
[4]; FeSSIF (initial pH 4.83), 24 h
  Sample pH: 1.89
[4]; thermodynamic from solid, water, 1 h
  solubility at 1 h: > 2.5 mg/mL
[4]; thermodynamic from solid, water, 24 h
  solubility at 24 h: > 2.5 mg/mL
[4]; water, 1 h
  Sample pH: ~6.35
[4]; water, 24 h
  Sample pH: 5.50
[5]; DVS
  Hygroscopicity (in words): moderately hygroscopic
[5]; after DVS from 2 to 95% RH
  Change by XRPD following the DVS analysis: Slight changes
[5]; from 2 to 95% relative humidity
  Reversible mass gain (DVS): 9.18 wt. %
[5]; high humidity
  Behaviour at high humidity: began to convert to amorphous
[6]
  Stability after humidity exposure (XRPD, deliquescence): stable with no observed deliquescence
